Test results published in US6531512B1, “Method of treating cancer in patients having a deficiency in p53 tumor suppressor gene” (Health Research Inc., priority 1998, dated 2003).

System: SK-MEL-28 human melanoma cells
Assay: Polyamine pools and analog accumulation in SK-MEL-28 cells
Assay type: cell-based
Protocol: MALME-3M human melanoma cells were cultured as described in Example 1 and treated with 10 μM DENSPM or 10 μM spermine (SPM) as described in Example 4. SK-MEL-28 cells were also cultured as described in Example 1 and treated with 10 μM DENSPM as describe in Example 4. Untreated cells were used as a control.
After treatment with DENSPM or spermine, biochemical parameters including polyamine enzymes activity, polyamine pools and analog accumulation were monitored as described by Kramer et al, J. Biol. Chem., 270:2124-32 (1995) and Kramer et al., Cancer Res., 57:5521-5527 (1997). Polyamine enzyme activity was monitored for ornithine […] (ODC); S-adenosylmethionine decarboxylase (SAMDC); and spermidine/spermine N^1-acetyltransferase (SSAT). Polyamine pools was monitored for putrescine (Put); spermidine (Spd); and spermine (Spm).
Enzyme activity and polyamine pools were measured as described in Example 5.

[1] = SK-MEL-28 (mt-p53), 10 μM, Table 2, 24 hours
[2] = SK-MEL-28 cells, 24 hours, Table 4

CCNCCCNCCCNCCCNCC [DENSPM, N^1,N^11-diethylnorspermine]
Polyamine Pools, Put [1]: 70 pmol/10^6 cells
Polyamine Pools, Spd [1]: 20 pmol/10^6 cells
Polyamine Pools, Spm [1]: 105 pmol/10^6 cells
decrease in spermine pools (SK-MEL-28 cells, 24 hours): 95%
Analog (intracellular accumulation) [2]: 7710 pmol/10^6 cells
Polyamine Pools, Put [2]: 115 pmol/10^6 cells
Polyamine Pools, Spd [2]: 45 pmol/10^6 cells
Polyamine Pools, Spm [2]: 190 pmol/10^6 cells
